Source: patent US20060211697A1, “2-(2 Or 4-substituted aryloxy)-phenol derivatives as antibacterial agents” (priority 2004, published 2006)
In brackets after ≈: the same amount, converted by molar mass.

Columns and labels:
S. pneumoniae 11733 = assay: MIC, broth dilution method, S. pneumoniae; type: cell-based; details: Streptococcus pneumoniae, 11733; Gram-positive bacteria; in vitro, broth dilution; read-out: MIC S. pneumoniae 11733
Procedure: (§1) Minimum Inhibition Concentration (MIC), Broth Dilution Method:
(§2) The compounds of the present invention were tested against an assortment of Gram positive and Gram negative organisms using standard microtitration techniques well known to those skilled in the art. Cultures of bacteria are initially brought up from the freezer by streaking a loopful onto agar plates under the appropriate conditions. For instance bacterial stocks are streaked onto chocolate agar and then incubated for 18 hours at 35-37° C. in a 5% CO2 incubator. Five to ten colonies are picked from the chocolate agar plate for subculture to Brain-Heart infusion (BHI) broth, Mueller Hinton broth, or BHI containing 4% serum and incubated under the appropriate conditions. The ability of the test compound to act as an antimicrobial is determined by the ability to inhibit bacterial growth in vitro. The optical density of the culture of organisms in the presence of an active compound is compared to the optical density of the same organism untreated. The activity of the compounds is described as either negative or the lowest concentration inhibiting growth (Minimum Inhibitory Concentration [MIC]).

H. influenzae 43095 = assay: MIC, broth dilution method, H. influenzae; type: cell-based; details: Haemophilus influenzae, 43095; Gram-negative bacteria; in vitro, broth dilution; read-out: MIC H. influenzae 43095
Procedure: as §1, §2

E. coli 43888 = assay: MIC, broth dilution method, E. coli; type: cell-based; details: Escherichia coli, 43888; Gram-negative bacteria; in vitro, broth dilution; read-out: MIC E. coli 43888
Procedure: as §1, §2

S. aureus 29213 = assay: MIC, broth dilution method, S. aureus; type: cell-based; details: Staphylococcus aureus, 29213; Gram-positive bacteria; in vitro, broth dilution; read-out: MIC S. aureus 29213
Procedure: as §1, §2

SMILES	MIC (S. pneumoniae 11733) [µg/mL]	MIC (H. influenzae 43095) [µg/mL]	MIC (E. coli 43888) [µg/mL]	MIC (S. aureus 29213) [µg/mL]	melting point
Cc1ccc(Oc2ccc(C3NC(C(=O)O)CCS3)cc2)c(O)c1 (centres unmarked) [Example 8, 2-[4-(2-Hydroxy-4-methyl-phenoxy)-phenyl]-[1, 3]thiazinane-4-carboxylic acid]	4 (≈ 11.6 µM)	0.5 (≈ 1.45 µM)	4 (≈ 11.6 µM)	0.5 (≈ 1.45 µM)	140 to 145 °C (dec.)
Cc1ccc(Oc2ccc(C3NC(C(=O)O)CS3)cc2C#N)c(O)c1 (centres unmarked) [Example 9, 2-[3-Cyano-4-(2-hydroxy-4-methyl-phenoxy)-phenyl]-thiazolidine-4-carboxylic acid]	4 (≈ 11.2 µM)	4 (≈ 11.2 µM)	4 (≈ 11.2 µM)	2 (≈ 5.61 µM)	150 to 152 °C
Cc1ccc(Oc2ccc(C3NC(C(=O)O)CCS3)cc2C#N)c(O)c1 (centres unmarked) [Example 10, 2-[3-Cyano-4-(2-hydroxy-4-methyl-phenoxy)-phenyl]-[1,3]thiazinane-4-carboxylic acid]	2 (≈ 5.4 µM)	2 (≈ 5.4 µM)	4 (≈ 10.8 µM)	2 (≈ 5.4 µM)	147 to 150 °C (dec.)
Cc1ccc(Oc2ccc(-c3nnn[nH]3)cc2)c(O)c1 [Example 13, 5-Methyl-2-[4-(1H-tetrazol-5-yl)-phenoxy]-phenol and 5-methyl-2-[4-(2H-tetrazol-5-yl)-phenoxy]-phenol]	7.9 (≈ 29.4 µM)	2 (≈ 7.46 µM)	62.5 (≈ 233 µM)	7.9 (≈ 29.4 µM)	173 to 175 °C
Cc1ccc(Oc2ccccc2-c2nnn[nH]2)c(O)c1 [Example 14, 5-Methyl-2-[2-(1H-tetrazol-5-yl)-phenoxy]-phenol and 5-methyl-2-[2-(2H-tetrazol-5-yl)-phenoxy]-phenol]	2 (≈ 7.46 µM)	0.125 (≈ 0.466 µM)	0.125 (≈ 0.466 µM)	0.002 (≈ 0.00746 µM)	205 to 207 °C
Nc1nnc(-c2ccccc2Oc2ccc(F)cc2O)s1 [Example 22, 2-[2-(5-Amino-[1,3,4]thiadiazol-2-yl)-phenoxy]-5-fluoro-phenol]	25 (≈ 82.4 µM)	> 25	> 25	12.5 (≈ 41.2 µM)	250 to 255 °C (dec.)
Cc1ccc(Oc2ccc(-c3nnc(N)s3)cc2)c(O)c1 [Example 23, 2-[4-(5-Amino-[1,3,4]thiadiazol-2-yl)-phenoxy]-5-methyl-phenol]	12.5 (≈ 41.8 µM)	> 25	25 (≈ 83.5 µM)	1.6 (≈ 5.34 µM)	240 to 243 °C (dec.)
